Results reported in the NIST ThermoML archive (doi:10.1021/acs.jced.6b00169).
“And” between values parts separate entries of the source, which are not always exact repeats. Identical values can stand only once.

Conditions: for vapor or sublimation pressure: Liquid, Closed cell (Static) method; for mass density: Fluid (supercritical or subcritical phases), isochoric method

FC(F)(F)/C=C\C(F)(F)F [(Z)-1,1,1,4,4,4-hexafluorobut-2-ene]
Conditions | vapor or sublimation pressure
323.47 K | 182.2 kPa
323.49 K | 177.9 kPa
323.5 K | 180.6 kPa [middle of 4 runs]
323.51 K | 181.2 kPa [middle of 7 runs]
323.52 K | 180.2 kPa [middle of 5 runs]
323.53 K | 182.1 kPa and 186.3 kPa
333.44 K | 247.7 kPa
333.45 K | 248.1 kPa
333.46 K | 243.8 kPa
333.47 K | 247.2 kPa and 243.5 kPa
333.48 K | 246.1 kPa and 248.3 kPa
333.49 K | 247.6 kPa [middle of 9 runs]
333.5 K | 254.8 kPa
343.45 K | 331.8 kPa
343.46 K | 331.6 kPa
343.48 K | 331.2 kPa [middle of 6 runs]
343.49 K | 330.6 kPa [middle of 7 runs]
343.5 K | 343.2 kPa and 336.4 kPa and 331.7 kPa
353.46 K | 435.3 kPa
353.47 K | 435.3 kPa
353.48 K | 435.2 kPa and 429.9 kPa and 430.2 kPa
353.49 K | 435.2 kPa [middle of 5 runs]
353.5 K | 434.6 kPa [middle of 4 runs]
363.46 K | 562 kPa and 561.7 kPa
363.47 K | 555.8 kPa and 556.4 kPa
363.48 K | 562.1 kPa [middle of 4 runs]
363.49 K | 562.2 kPa [middle of 5 runs]
363.5 K | 567.8 kPa and 559.4 kPa
373.45 K | 714 kPa
373.47 K | 714.4 kPa [middle of 4 runs]
373.48 K | 731.7 kPa and 715.2 kPa
373.49 K | 713.5 kPa [middle of 5 runs]
373.5 K | 716.9 kPa [middle of 4 runs]
383.45 K | 895.1 kPa
383.46 K | 888.7 kPa
383.47 K | 896.6 kPa and 889.9 kPa and 895.9 kPa
383.48 K | 896.5 kPa and 895.3 kPa
383.49 K | 893.4 kPa [middle of 6 runs]
383.5 K | 921.5 kPa and 896.4 kPa
393.47 K | 1103.1 kPa and 1109.7 kPa
393.48 K | 1112.1 kPa and 1110.3 kPa
393.49 K | 1109.6 kPa [middle of 4 runs]
393.5 K | 1111.5 kPa [middle of 4 runs]
393.51 K | 1113.3 kPa and 1107 kPa
403.41 K | 1365.2 kPa
403.47 K | 1361.3 kPa
403.48 K | 1355 kPa
403.49 K | 1364.2 kPa [middle of 4 runs]
403.5 K | 1358.5 kPa and 1362.4 kPa
403.51 K | 1363.4 kPa and 1358.6 kPa and 1364.3 kPa
413.47 K | 1648.2 kPa and 1655.1 kPa
413.49 K | 1657.8 kPa [middle of 4 runs]
413.5 K | 1651.9 kPa
413.51 K | 1658.4 kPa [middle of 4 runs]
423.47 K | 1995.7 kPa
423.48 K | 2000.2 kPa and 1989.3 kPa
423.49 K | 2000.4 kPa and 1992.9 kPa and 1997.8 kPa
423.5 K | 1990 kPa and 1999.2 kPa
423.51 K | 1999.9 kPa and 1993.1 kPa and 1999.7 kPa
433.46 K | 2391.8 kPa
433.47 K | 2384.5 kPa
433.49 K | 2396.8 kPa and 2389.4 kPa and 2393.9 kPa
433.5 K | 2385.2 kPa and 2388.6 kPa
433.51 K | 2396.2 kPa
433.52 K | 2395.9 kPa
443.45 K | 2854.5 kPa
443.47 K | 2837.9 kPa
443.5 K | 2847.4 kPa and 2860.1 kPa
443.51 K | 2859.8 kPa and 2850.8 kPa

Conditions | mass density [kg/m3]
333.47 K, 5013.6 kPa | 1294.9
333.49 K, 4294.8 kPa | 1291.4
343.5 K, 9927.3 kPa | 1290.8
353.5 K, 1179.2 kPa | 1214.2
363.49 K, 3108.6 kPa | 1196.7
363.5 K, 5627.6 kPa | 1213.6
373.49 K, 7319.3 kPa | 1196.2
383.48 K, 2373.8 kPa | 1121.1
393.48 K, 5697.9 kPa | 1120.5
393.51 K, 1151.8 kPa | 1038.9
403.48 K, 1382.1 kPa | 964.9
403.49 K, 1273.1 kPa | 87.8
403.5 K, 9039.9 kPa | 1120
403.51 K, 2538.6 kPa | 1038.4
413.48 K, 1705.4 kPa | 964.4
413.49 K, 1667.6 kPa | 884.8
413.5 K, 1339.2 kPa | 87.8
413.51 K, 5100.3 kPa | 1037.9
423.48 K, 3720.9 kPa | 964
423.49 K, 2049.1 kPa | 884.4
423.5 K, 1403.2 kPa | 87.7
423.51 K, 7690 kPa | 1037.4
433.47 K, 2440.9 kPa | 790.6
433.49 K, 1466 kPa | 87.7
433.49 K, 3342.9 kPa | 883.9
433.49 K, 5765 kPa | 963.5
433.5 K, 2159.2 kPa | 167.2
443.48 K, 2727.2 kPa | 261.3
443.48 K, 3403.1 kPa | 790.2
443.49 K, 2855.8 kPa | 451.8
443.49 K, 2856.2 kPa | 410.2
443.49 K, 2906.1 kPa | 659.8
443.49 K, 4930.5 kPa | 883.5
443.5 K, 1526.7 kPa | 87.6
443.5 K, 2301.4 kPa | 167.1
443.5 K, 2856.5 kPa | 556.1
443.5 K, 2857 kPa | 496.8
443.5 K, 3041.4 kPa | 734.7
443.5 K, 7837.5 kPa | 963.1
443.51 K, 2855.3 kPa | 532.1
443.51 K, 2860.2 kPa | 589.2
444.48 K, 2904 kPa | 410.2
444.48 K, 2905.8 kPa | 451.8
444.49 K, 2907.9 kPa | 496.8
444.49 K, 2909.6 kPa | 556.1
444.5 K, 2907.5 kPa | 532.1
444.5 K, 2918.3 kPa | 589.2
445.48 K, 2948.7 kPa | 410.1
445.48 K, 2955 kPa | 451.8
445.49 K, 2960.5 kPa | 496.8
445.49 K, 2967.6 kPa | 556.1
445.49 K, 2979 kPa | 589.2
445.5 K, 2963.5 kPa | 532.1
446.47 K, 2992.8 kPa | 410.1
446.47 K, 3039.9 kPa | 589.2
446.48 K, 3003.8 kPa | 451.8
446.49 K, 3019.2 kPa | 532.1
446.49 K, 3024.7 kPa | 556
446.5 K, 3013.3 kPa | 496.8
447.47 K, 3036.6 kPa | 410.1
447.49 K, 3052.3 kPa | 451.8
447.49 K, 3075.5 kPa | 532
447.49 K, 3102.7 kPa | 589.1
447.5 K, 3083 kPa | 556
447.51 K, 3065.9 kPa | 496.8
448.47 K, 3080.1 kPa | 410.1
448.48 K, 3099.7 kPa | 451.7
448.49 K, 3131.1 kPa | 532
448.49 K, 3165.1 kPa | 589.1
448.5 K, 3117.9 kPa | 496.7
448.5 K, 3140.9 kPa | 556
449.46 K, 3123.1 kPa | 410.1
449.48 K, 3147.7 kPa | 451.7
449.49 K, 3187.7 kPa | 532
449.5 K, 3170.6 kPa | 496.7
449.5 K, 3200.1 kPa | 556
449.5 K, 3229.7 kPa | 589.1
450.46 K, 3166.1 kPa | 410
450.48 K, 3195.5 kPa | 451.7
450.5 K, 3223.3 kPa | 496.7
450.5 K, 3259.2 kPa | 555.9
450.5 K, 3293.6 kPa | 589
450.51 K, 3244.9 kPa | 532
451.47 K, 3209.5 kPa | 410
451.48 K, 3243 kPa | 451.7
451.49 K, 3357.7 kPa | 589
451.5 K, 3275.9 kPa | 496.7
451.5 K, 3318.3 kPa | 555.9
451.51 K, 3300.8 kPa | 531.9
452.47 K, 3252.2 kPa | 410
452.48 K, 3290.8 kPa | 451.7
452.49 K, 3328.2 kPa | 496.6
452.49 K, 3378.2 kPa | 555.9
452.49 K, 3422.9 kPa | 589
452.5 K, 3358.3 kPa | 531.9
453.47 K, 3294.8 kPa | 410
453.48 K, 3200.2 kPa | 348.3
453.49 K, 3338.4 kPa | 451.6
453.49 K, 3381.2 kPa | 496.6
453.49 K, 4021.4 kPa | 734.4
453.49 K, 9923.8 kPa | 962.6
453.5 K, 1586.1 kPa | 87.6
453.5 K, 2978.8 kPa | 261.1
453.5 K, 3415.5 kPa | 531.9
453.5 K, 3438.5 kPa | 555.9
453.5 K, 3477.4 kPa | 589
453.5 K, 3489.4 kPa | 589
453.5 K, 3654.8 kPa | 659.5
453.5 K, 4584 kPa | 789.8
453.5 K, 6552.2 kPa | 883.1
453.51 K, 2439 kPa | 167
453.51 K, 3355.4 kPa | 473.8
453.51 K, 3423.1 kPa | 534.1
453.52 K, 3308.4 kPa | 416.3
463.47 K, 3811.6 kPa | 451.7
463.48 K, 3548.1 kPa | 348.1
463.49 K, 5796.3 kPa | 789.4
463.5 K, 1644.5 kPa | 87.5
463.5 K, 3221.4 kPa | 261
463.5 K, 4145.4 kPa | 588.7
463.5 K, 4465.6 kPa | 659.2
463.5 K, 8195.5 kPa | 882.7
463.51 K, 2573 kPa | 166.9
463.51 K, 3856.7 kPa | 473.6
463.51 K, 4003.3 kPa | 533.8
463.52 K, 3741 kPa | 416.1
463.84 K, 5039.9 kPa | 734
473.46 K, 4282.9 kPa | 451.5
473.49 K, 3889.2 kPa | 347.9
473.49 K, 5297.9 kPa | 658.9
473.49 K, 6084.9 kPa | 733.7
473.49 K, 7031.2 kPa | 789.1
473.5 K, 1702.6 kPa | 87.5
473.5 K, 3458.3 kPa | 260.9
473.5 K, 4828.4 kPa | 588.4
473.5 K, 9855 kPa | 882.3
473.51 K, 2705 kPa | 166.8
473.51 K, 4169.1 kPa | 416
473.51 K, 4592.6 kPa | 533.6
473.52 K, 4360 kPa | 473.3
483.45 K, 4753 kPa | 451.3
483.48 K, 8280.1 kPa | 788.7
483.49 K, 4225.7 kPa | 347.8
483.49 K, 6143.2 kPa | 658.6
483.5 K, 1760.4 kPa | 87.5
483.5 K, 3690.6 kPa | 260.8
483.5 K, 4863.2 kPa | 473.1
483.5 K, 5186.3 kPa | 533.3
483.5 K, 5522.5 kPa | 588.1
483.51 K, 2834.3 kPa | 166.8
483.51 K, 4596.7 kPa | 415.8
483.51 K, 7145.4 kPa | 733.3
493.49 K, 4559.3 kPa | 347.6
493.5 K, 3920 kPa | 260.6
493.5 K, 6223.9 kPa | 587.8
493.51 K, 1817.2 kPa | 87.4
493.51 K, 2962 kPa | 166.7
493.51 K, 5368 kPa | 472.9
503.5 K, 4890.2 kPa | 347.4
503.51 K, 6930.9 kPa | 587.6
